Measured values: US9555038B2, “Heterocycle-substituted tetracyclic compounds and methods of use thereof for the treatment of viral diseases” (Merck Sharp & Dohme Corp., priority 2013, dated 2017)
Like-named read-outs stand apart in the source and are kept apart here.

What was measured:
HCV replicon 1A = assay: Cell-based HCV Replicon Assay A, replicon 1A
How it was run: (§1)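 Readout: replicon RNA by real-time RT-PCR, normalised to co-amplified cyclophilin and quantified against replicon total-RNA standard curves. Cells (2000/well) treated 3 days in medium with 5% FBS and 0.5% DMSO, compound in 10 serial dilutions from starting concentrations of 333.3 nM to 1.667 nM.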

HCV replicon 1B = assay: Cell-based HCV Replicon Assay B, replicon 1B; conditions: Hepatitis C virus
Procedure: In an alternate assay (“Replicon Assay B”), 1000 cells were seeded per well in a 384-well collagen coated black plate from Greiner bio-one (Cat #781946) in 5% FBS. Inhibitors of this invention were added at 24 h post-seeding, and the plates were incubated for 3 days. Cells were subsequently lysed with Qiagen lysis buffer (Cat #1062731) to extract the RNA. HCV replicon RNA level was measured by real-time PCR using the RNA-to-CT kit from Applied Biosystem (Cat #4392656) and genotype-specific primers and probes. The amplicon was located within NS5B. The sequence of the PCR primers are as follows: 5B.2F, ATGGACAGGCGCCCTGA (SEQ. ID NO. 1); 5B.2R, […] (SEQ. ID NO. 2); the probe sequence was FAM-labeled CACGCCATGCGCTGCGG (SEQ. ID NO. 3). To detect genotype 1A the primer 1A F, TGCGGAACCGGTGAGTACA and 1A R, […] were used; the probe sequence was FAM-[…].
The real-time RT-PCR reactions were run on ABI PRISM 7900HT or Viia7 Sequence Detection System using the following program: 48° C. for 30 minutes, 95° C. for 10 minutes, 40 cycles of 95° C. for 15 sec, 60° C. for 1 minutes. The 50% effective concentration (EC50) was the drug concentration necessary to achieve an increase in the cycle threshold (CT) of 1 over the projected baseline CT.
Data was obtained for various compounds of the present invention using the methods described in the Example above, and is presented in the table immediately below. Data for replicons 1A, 1AY93H and 2B were obtained using Replicon Assay A and data for replicons 1AQ30D and 1B were obtained using Replicon Assay B.

HCV replicon 1AY93H = assay: Cell-based HCV Replicon Assay A, replicon 1AY93H
How it was run: as §1

HCV replicon 2B = assay: Cell-based HCV Replicon Assay A, replicon 2B
How it was run: as §1

[1] = Hepatitis C virus, read-out: 1A Y93H IC50 (nM), replicon 1AY93H
[2] = Hepatitis C virus, read-out: 2B IC50 (nM), replicon 2B
[3] = read-out: 1A Y93H IC50, replicon 1AY93H
[4] = replicon 1AY93H, read-out: 1A Y93H IC50

Structure (SMILES)	IC50 (HCV replicon 1A; Hepatitis C virus)	IC50 (HCV replicon 1AY93H; [1])	IC50 (HCV replicon 2B; read-out: 2B IC50, replicon 2B)	IC50 (HCV replicon 2B; [2])	IC50 (HCV replicon 1AY93H; [3])	IC50 (HCV replicon 1A)	other results
COC(=O)N[C@H](C(=O)N1CCC[C@H]1c1ncc(-c2cc(F)c3c(c2)OC(c2nc(C4CC4)sc2C)n2c-3cc3cc(-c4cnc([C@@H]5CCCN5C(=O)[C@@H](NC(=O)OC)C(C)C)[nH]4)ccc32)[nH]1)C(C)C (mixture of isomers) [Compound 451]	0.0025 nM	–	–	–	–	–	IC50 (HCV replicon 1B): 0.0027 nM
COC(=O)N[C@H](C(=O)N1CCC[C@H]1c1ncc(-c2cc(F)c3c(c2)OC(c2nc4ccccc4s2)n2c-3cc3cc(-c4cnc([C@@H]5CCCN5C(=O)[C@@H](NC(=O)OC)C(C)C)[nH]4)ccc32)[nH]1)C(C)C (single isomer, unassigned) [Compound 401]	0.0085 nM	0.346 nM	0.634 nM	–	–	–	–
COC(=O)N[C@H](C(=O)N1CCC[C@H]1c1ncc(-c2cc(F)c3c(c2)OC(c2cnc(-c4ccccn4)s2)n2c-3cc3cc(-c4cnc([C@@H]5CCCN5C(=O)[C@@H](NC(=O)OC)C(C)C)[nH]4)ccc32)[nH]1)C(C)C (single isomer, unassigned) [Compound 406]	0.003 nM	0.0034 nM	–	0.005 nM	–	–	–
COC(=O)N[C@H](C(=O)N1CCC[C@H]1c1ncc(-c2cc(F)c3c(c2)OC(c2cnc(-c4ccc(C)o4)s2)n2c-3cc3cc(-c4cnc([C@@H]5CCCN5C(=O)[C@@H](NC(=O)OC)C(C)C)[nH]4)ccc32)[nH]1)C(C)C (single isomer, unassigned) [Compound 413]	0.0036 nM	0.0196 nM	0.173 nM	–	–	–	–
COC(=O)N[C@H](C(=O)N1CCC[C@H]1c1ncc(-c2cc(F)c3c(c2)OC(c2nc(C(F)(F)F)cs2)n2c-3cc3cc(-c4cnc([C@@H]5CCCN5C(=O)[C@@H](NC(=O)OC)C(C)C)[nH]4)ccc32)[nH]1)C(C)C (single isomer, unassigned) [Compound 419]	–	–	–	6.47 nM	17.9 nM	0.0041 nM	–
COC(=O)N[C@H](C(=O)N1CCC[C@H]1c1ncc(-c2cc(F)c3c(c2)OC(c2nc(C(F)(F)F)cs2)n2c-3cc3cc(-c4cnc([C@@H]5CCCN5C(=O)[C@@H](NC(=O)OC)C(C)C)[nH]4)ccc32)[nH]1)C(C)C (single isomer, unassigned) [Compound 420]	–	–	5.56 nM	–	1.87 nM	0.0101 nM	–
CCC(CC)c1ncc(C2Oc3cc(-c4cnc([C@@H]5CCCN5C(=O)[C@@H](NC(=O)OC)C(C)C)[nH]4)cc(F)c3-c3cc4cc(-c5cnc([C@@H]6CCCN6C(=O)[C@@H](NC(=O)OC)C(C)C)[nH]5)ccc4n32)s1 (single isomer, unassigned) [Compound 421]	–	0.014 nM	–	0.103 nM	–	0.0037 nM	–
COC(=O)N[C@H](C(=O)N1CCC[C@H]1c1ncc(-c2cc(F)c3c(c2)OC(c2cscn2)n2c-3cc3cc(-c4cnc([C@@H]5CCCN5C(=O)[C@@H](NC(=O)OC)C(C)C)[nH]4)ccc32)[nH]1)C(C)C (single isomer, unassigned) [Compound 430]	–	–	7.1 nM	–	19.5 nM	0.006 nM	–
COC(=O)N[C@H](C(=O)N1CCC[C@H]1c1ncc(-c2cc(F)c3c(c2)OC(c2cscn2)n2c-3cc3cc(-c4cnc([C@@H]5CCCN5C(=O)[C@@H](NC(=O)OC)C(C)C)[nH]4)ccc32)[nH]1)C(C)C (single isomer, unassigned) [Compound 431]	–	–	3.1 nM	–	0.56 nM	0.033 nM	–
COC(=O)NC(C(=O)N1[C@@H]2C[C@@H]2C[C@H]1c1ncc(-c2ccc3c(c2)cc2n3C(c3cnc(CC(C)C)s3)Oc3cc(-c4cnc([C@@H]5CCCN5C(=O)[C@@H](NC(=O)OC)C(C)C)[nH]4)cc(F)c3-2)[nH]1)C1CCOC(C)(C)C1 (single isomer, unassigned) [Compound 436]	–	–	–	–	–	0.0011 nM	IC50 (HCV replicon 1AY93H; [4]): 0.126 nM; IC50 (HCV replicon 2B; replicon 2B, read-out: 2B IC50): 0.318 nM
CCCc1ncc(C2Oc3cc(-c4cnc([C@@H]5CCCN5C(=O)[C@@H](NC(=O)OC)C(C)C)[nH]4)cc(C)c3-c3cc4cc(-c5cnc([C@@H]6CCCN6C(=O)C(NC(=O)OC)C(C)(C)F)[nH]5)ccc4n32)s1 (single isomer, unassigned) [Compound 486]	0.0041 nM	0.342 nM	–	0.031 nM	–	–	–
COC(=O)N[C@H](C(=O)N1CCC[C@H]1c1ncc(-c2cc(F)c3c(c2)OC(c2nc4c(s2)CCC4)n2c-3cc3cc(-c4cnc([C@@H]5CCCN5C(=O)[C@@H](NC(=O)OC)C(C)C)[nH]4)ccc32)[nH]1)C(C)C (single isomer, unassigned) [Compound 505]	–	–	0.22 nM	–	0.152 nM	0.0015 nM	–
COC(=O)N[C@H](C(=O)N1CCC[C@H]1c1ncc(-c2cc(F)c3c(c2)OC(c2cnc(CC4CC4)s2)n2c-3cc3cc(-c4cnc([C@@H]5CCCN5C(=O)[C@@H](NC(=O)OC)C(C)C)[nH]4)ccc32)[nH]1)C(C)C (single isomer, unassigned) [Compound 510]	–	–	–	–	–	0.001 nM	IC50 (HCV replicon 1AY93H; [4]): 0.629 nM; IC50 (HCV replicon 2B; replicon 2B, read-out: 2B IC50): 0.624 nM
COC(=O)N[C@H](C(=O)N1CCC[C@H]1c1ncc(-c2cc(F)c3c(c2)OC(c2cnc(C4CCCCC4)s2)n2c-3cc3cc(-c4cnc([C@@H]5CCCN5C(=O)[C@@H](NC(=O)OC)C(C)C)[nH]4)ccc32)[nH]1)C(C)C (single isomer, unassigned) [Compound 528]	–	–	0.727 nM	–	1.15 nM	0.0014 nM	–
COC(=O)NC(C(=O)N1CCC[C@H]1c1ncc(-c2ccc3c(c2)cc2n3C(c3nc4c(s3)CCC4)Oc3cc(-c4cnc([C@@H]5CCCN5C(=O)[C@@H](NC(=O)OC)C(C)C)[nH]4)cc(F)c3-2)[nH]1)C1CCOC(C)(C)C1 (single isomer, unassigned) [Compound 537]	0.0019 nM	3.33 nM	–	0.198 nM	–	–	–
COC(=O)NC(C(=O)N1CCC[C@H]1c1ncc(-c2ccc3c(c2)cc2n3C(c3cnc(CC4CC4)s3)Oc3cc(-c4cnc([C@@H]5CCCN5C(=O)[C@@H](NC(=O)OC)C(C)C)[nH]4)cc(F)c3-2)[nH]1)C1CCOC(C)(C)C1 (single isomer, unassigned) [Compound 538]	–	–	–	–	–	0.0012 nM	IC50 (HCV replicon 1AY93H; [4]): 0.579 nM; IC50 (HCV replicon 2B; replicon 2B, read-out: 2B IC50): 0.117 nM
COC(=O)NC(C(=O)N1CCC[C@H]1c1ncc(-c2ccc3c(c2)cc2n3C(c3cnc(CC(C)C)s3)Oc3cc(-c4cnc([C@@H]5CCCN5C(=O)[C@@H](NC(=O)OC)C(C)C)[nH]4)cc(F)c3-2)[nH]1)C1CCOC(C)(C)C1 (single isomer, unassigned) [Compound 542]	–	–	0.124 nM	–	0.495 nM	0.0014 nM	–
COC(=O)NC(C(=O)N1CCC[C@H]1c1ncc(-c2ccc3c(c2)cc2n3C(c3cnc(CC(C)C)s3)Oc3cc(-c4cnc([C@@H]5CCCN5C(=O)[C@@H](NC(=O)OC)C(C)C)[nH]4)cc(F)c3-2)[nH]1)C1CCOC(C)(C)C1 (single isomer, unassigned) [Compound 543]	–	–	0.153 nM	–	0.167 nM	0.0021 nM	–
COC(=O)NC(C(=O)N1CCC[C@H]1c1ncc(-c2ccc3c(c2)cc2n3C(c3cnc(CC(C)C)s3)Oc3cc(-c4cnc([C@@H]5CCCN5C(=O)[C@@H](NC(=O)OC)C(C)C)[nH]4)cc(F)c3-2)[nH]1)C1C[C@@H](C)O[C@@H](C)C1 (single isomer, unassigned) [Compound 546]	0.0014 nM	–	0.165 nM	–	0.315 nM	–	–
COC(=O)N[C@H](C(=O)N1CCC[C@H]1c1ncc(-c2cc(F)c3c(c2)OC(c2cnc(-c4ccc(F)cc4F)s2)n2c-3cc3cc(-c4cnc([C@@H]5CCCN5C(=O)[C@@H](NC(=O)OC)C(C)C)[nH]4)ccc32)[nH]1)C(C)C (some centres unmarked) [Compound 55]	0.0012 nM	0.0021 nM	–	0.003 nM	–	–	–
COC(=O)N[C@H](C(=O)N1CCC[C@H]1c1ncc(-c2cc(F)c3c(c2)OC(c2cnc(-c4ccncn4)s2)n2c-3cc3cc(-c4cnc([C@@H]5CCCN5C(=O)[C@@H](NC(=O)OC)C(C)C)[nH]4)ccc32)[nH]1)C(C)C (some centres unmarked) [Compound 503]	0.0022 nM	0.149 nM	–	0.362 nM	–	–	–
